Measured values taken from paper PMC3360617, “Pan-Pathway Based Interaction Profiling of FDA-Approved Nucleoside and Nucleobase Analogs with Enzymes of the Human Nucleotide Metabolism” (PLoS ONE, 2012).
pKi: −log10 of the molar value. Each block holds one compound with its values, some of them ahead of it.

Experiments:
[1] = target: T1, Guanine deaminase (Homo sapiens, UniProt Q9Y2T3); test: co-crystal structure at […] Å; thermal shift (DSLS), concentration-dependent; format: binding; conditions: read-out: delta_Tm
T1 construct: gene GDA
T1 sequence (Q9Y2T3 1-454): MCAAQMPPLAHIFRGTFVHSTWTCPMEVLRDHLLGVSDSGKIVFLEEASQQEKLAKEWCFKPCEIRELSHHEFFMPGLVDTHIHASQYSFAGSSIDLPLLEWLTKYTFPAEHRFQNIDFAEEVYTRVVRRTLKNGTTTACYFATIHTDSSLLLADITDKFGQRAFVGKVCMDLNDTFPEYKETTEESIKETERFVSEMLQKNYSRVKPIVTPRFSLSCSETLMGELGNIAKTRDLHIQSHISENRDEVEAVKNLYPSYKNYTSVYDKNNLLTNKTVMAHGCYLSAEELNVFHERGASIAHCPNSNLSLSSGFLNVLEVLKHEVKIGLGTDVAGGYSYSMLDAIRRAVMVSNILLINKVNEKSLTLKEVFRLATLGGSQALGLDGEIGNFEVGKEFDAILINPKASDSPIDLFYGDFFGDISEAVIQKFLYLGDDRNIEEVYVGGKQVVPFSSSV

[2] = target: T1, Guanine deaminase; test: thermal shift assay (DSLS), concentration-dependent; format: binding
[3] = target: T2, Uridine phosphorylase 1 (Homo sapiens, UniProt Q16831); test: thermal shift assay (DSLS), concentration-dependent; enhanced by […] ribose-1-phosphate; format: binding; conditions: read-out: ΔTagg (NA+R1P)
T2 construct: gene UPP1
T2 sequence (Q16831 whole entry): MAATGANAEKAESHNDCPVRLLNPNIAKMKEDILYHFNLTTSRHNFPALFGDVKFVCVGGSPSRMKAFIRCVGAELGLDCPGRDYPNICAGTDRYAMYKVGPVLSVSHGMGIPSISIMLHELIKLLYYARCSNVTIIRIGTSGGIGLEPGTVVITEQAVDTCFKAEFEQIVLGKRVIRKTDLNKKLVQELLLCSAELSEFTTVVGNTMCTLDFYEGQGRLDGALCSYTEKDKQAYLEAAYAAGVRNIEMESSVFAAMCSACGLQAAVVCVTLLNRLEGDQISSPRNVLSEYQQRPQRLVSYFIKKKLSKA

[4] = target: T3, deoxycytidine kinase (Homo sapiens, UniProt P27707); test: thermal shift assay (DSLS), concentration-dependent; format: binding; conditions: read-out: 500 μM NA (+1 mM ATP)
T3 construct: gene DCK
T3 sequence (P27707 whole entry): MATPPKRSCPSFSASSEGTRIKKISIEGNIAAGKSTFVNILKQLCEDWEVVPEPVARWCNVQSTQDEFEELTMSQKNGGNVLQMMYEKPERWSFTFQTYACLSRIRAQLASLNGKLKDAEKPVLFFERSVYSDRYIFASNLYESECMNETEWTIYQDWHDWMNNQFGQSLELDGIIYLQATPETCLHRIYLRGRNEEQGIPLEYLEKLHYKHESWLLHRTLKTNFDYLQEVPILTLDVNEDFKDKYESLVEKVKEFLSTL

[5] = target: T2, Uridine phosphorylase 1; test: as above; format: binding; conditions: read-out: delta_Tm
[6] = target: T2, Uridine phosphorylase 1; test: HPLC enzyme kinetics with uridine (Lineweaver-Burk); also thermal shift ([…]°C at […]); format: biochemical

ΔTm at 1000 µM [1]: ~7 °C
SMILES: CC(C)[C@H](N)C(=O)OCCOCn1cnc2c(=O)[nH]c(N)nc21 [valaciclovir]

SMILES: Nc1nc2c(ncn2CCC(CO)CO)c(=O)[nH]1 [penciclovir]
thermal shift assay (DSLS), concentration-dependent [2]: Thioguanine, ganciclovir, aciclovir, penciclovir, valaciclovir, flucytosine and idoxuridine showed concentration-dependent stabilization of GDA

ΔTm at 500 µM [3]: 3.78 °C
SMILES: O=c1[nH]c(=O)n([C@H]2C[C@H](O)[C@@H](CO)O2)cc1C(F)(F)F [trifluridine]

ΔTm at 500 µM [4]: 7.29 °C
SMILES: Nc1ncn([C@H]2C[C@H](O)[C@@H](CO)O2)c(=O)n1 [Decitabine]

SMILES: Nc1ccn([C@@H]2O[C@H](CO)[C@@H](O)C2(F)F)c(=O)n1 [Gemcitabine]
ΔTm at 500 µM [4]: 5.22 °C

SMILES: Nc1nc2nc[nH]c2c(=S)[nH]1 [thioguanine]
thermal shift assay (DSLS), concentration-dependent [2]: followed in decreasing order by thioguanine, acyclovir, penciclovir, ganciclovir and mercaptopurine

ΔTm at 500 µM [5]: 1.72 °C
SMILES: O=c1[nH]c(=O)n([C@H]2C[C@H](O)[C@@H](CO)O2)cc1I [idoxuridine]

SMILES: Nc1nc2c(ncn2COCCO)c(=O)[nH]1 [aciclovir]
thermal shift assay (DSLS), concentration-dependent [2]: Interactions were detected between GDA and valaciclovir, aciclovir, penciclovir, ganciclovir, thioguanine and mercaptopurine

pKi [6]: 3.41
SMILES: Nc1ncnc2c1ncn2[C@@H]1O[C@H](CO)[C@@H](O)[C@@H]1O [vidarabine]
